According to patent US20240067668A1, “HETEROARYL DERIVATIVE COMPOUND AND USE THEREOF” (VORONOI INC., priority 2020, published 2024):

Assays:
[1] = system: BaF3-EGFR (Del19/T790M/C797S) cells; assay: Inhibitory activity on Ba/F3 cell proliferation (CellTiter-Glo, 72 hours); assay type: cell-based; conditions: Ba/F3 cells expressing EGFR Del19/T790M/C797S
Procedure: (§1) The following experiments were performed to evaluate the inhibitory activity of the compound represented by Chemical Formula 1 according to the present invention on the proliferation of Ba/F3 cells expressing EGFR mutants.
(§2) BaF3-EGFR (WT) and BaF3-EGFR (Del19/T790M/C797S) cells were seeded in a clear bottom white 96-well plate at a density of 3×10^3/100 μl/well, and then 0.5 μl/well of the culture medium, containing the compounds at 12 concentrations (0.00001-2 mM) serially diluted in 3 folds and the DMSO control, was added to a final concentration of 0.00005-10 μM, followed by culturing in a 37° C. CO2 incubator for 72 hours. After 72 hours, the plates treated with the compounds were taken out, treated with 100 μl/well of CellTiter-Glo® 2.0 Assay (Promega) solution, and mixed well. After mixing well at room temperature for about 10 minutes, […] was measured using a microplate reader. As to Data, GI50 (μM) values were calculated using GraphPad Prism 8.3.0 (GraphPad software Inc., San Diego) as percentages in proportion to vehicle-based treated cells. The result values were calculated as a cell growth rate (%) compared to the control group. A graph was created using the GraphPad Prism version 5.0 program, and GI50 (μM) values were calculated.

BaF3-EGFR (WT) cells = assay: as above; assay type: cell-based; conditions: Ba/F3 cells expressing EGFR WT
Procedure: as §1, §2

| SMILES | GI50 [1] [µM] | GI50 (BaF3-EGFR (WT) cells) [µM] |
| --- | --- | --- |
| COc1cc(N2CCC(N3CCN(C)CC3)CC2)c(C)cc1Nc1nc(Nc2ccc3nccnc3c2P(C)(C)=O)c2sccc2n1 [Example 59, (6-((2-((2-methoxy-5-methyl-4-(4-(4-methylpiperazin-1-yl)piperidin-1-yl)phenyl)amino)thieno [3,2-d]pyrimidin-4-yl)amino)quinoxalin-5-yl)dimethyl-phosphine oxide] | > 0.1 | > 0.1 |
| COc1cc(N2CCC(N3CCN(C)CC3)CC2)ccc1Nc1cc(Nc2ccc3nccnc3c2P(C)(C)=O)c2cc[nH]c2n1 [Example 64, (6-((6-((2-methoxy-4-(4-(4-methylpiperazin-1-yl)piperidin-1-yl)phenyl)amino)-1H-pyrrolo[2,3-b]pyridin-4-yl)amino)quinoxalin-5-yl)dimethyl-phosphine oxide] | > 0.1 | > 0.1 |
| CN1CCN(C2CCN(c3ccc(Nc4nc(Nc5ccc6nccnc6c5P(C)(C)=O)c5cc[nH]c5n4)cc3)CC2)CC1 [Example 58, dimethyl (6-((2-((4-(4-(4-methylpiperazin-1-yl)piperidin-1-yl)phenyl)amino)-7H-pyrrolo[2,3-d]pyrimidin-4-yl)amino)quinoxalin-5-yl)phosphine oxide] | 0.05 to 0.1 | > 0.1 |
| Cc1cc(Nc2nc(Nc3ccc4nccnc4c3P(C)(C)=O)c3cc[nH]c3n2)c(OCC(F)(F)F)cc1N1CCOCC1 [Example 11, dimethyl (6-((2-((5-methyl-4-morpholino-2-(2,2,2-trifluoroethoxy)phenyl)amino)-7H-pyrrolo[2,3-d]pyrimidin-4-yl)amino)quinoxalin-5-yl) phosphineoxide] | > 0.1 | > 0.1 |
| CN1CCN(c2c(-c3cnn(C)c3)cc(Nc3nc(Nc4ccc5nccnc5c4P(C)(C)=O)c4cc[nH]c4n3)c3c2OCCO3)CC1 [Example 130, dimethyl (6-((2-((7-(1-methyl-1H-pyrazol-4-yl)-8-(4-methylpiperazin-1-yl)-2,3-dihydrobenzo [b][1,4]dioxin-5-yl)amino)-7H-pyrrolo[2,3-d]pyrimidin-4-yl)amino)quinoxalin-5-yl)phosphine oxide] | ≤ 0.05 | > 0.1 |
| COc1cc(N2CCC(N3CCN(C)CC3)CC2)cnc1Nc1cc(Nc2ccc3nccnc3c2P(C)(C)=O)c2cc[nH]c2n1 [Example 65, (6-((6-((3-methoxy-5-(4-(4-methylpiperazin-1-yl)piperidin-1-yl)pyridin-2-yl)amino)-1H-pyrrolo[2,3-b]pyridin-4-yl)amino)quinoxalin-5-yl)dimethyl-phosphine oxide] | > 0.1 | > 0.1 |
| Cc1cc(Nc2nc(Nc3ccc4nccnc4c3P(C)(C)=O)c3cc[nH]c3n2)c2c(c1N1CCN(C)CC1)CCO2 [Example 121, dimethyl (6-((2-((5-methyl-4-(4-methylpiperazin-1-yl)-2,3-dihydrobenzo-furan-7-yl)amino)-7H-pyrrolo[2,3-d]pyrimidin-4-yl)amino)quinoxalin-5-yl)phosphine oxide] | > 0.1 | > 0.1 |
| COc1cc(N2CCN(C)CC2)c(-c2cnn(C)c2)cc1Nc1nc(Nc2ccc3nccnc3c2P(C)(C)=O)c2c(C(F)(F)F)c[nH]c2n1 [Example 53, (6-((2-((2-methoxy-5-(1-methyl-1H-pyrazol-4-yl)-4-(4-methyl-piperazin-1-yl)phenyl)amino)-5-(trifluoro-methyl)-7H-pyrrolo[2,3-d]pyrimidin-4-yl)amino)quinoxalin-5-yl)dimethyl-phosphine oxide] | > 0.1 | > 0.1 |
| COc1cc(N2CCC(N3CCN(C)CC3)CC2)c(C)cc1Nc1cc(Nc2ccc3nccnc3c2P(C)(C)=O)c2cc[nH]c2n1 [Example 63, (6-((6-((2-methoxy-5-methyl-4-(4-(4-methylpiperazin-1-yl)piperidin-1-yl)phenyl)amino)-1H-pyrrolo[2,3-b]pyridin-4-yl)amino)quinoxalin-5-yl)dimethyl-phosphine oxide] | > 0.1 | > 0.1 |
| CN1CCN(c2cc(OCC(F)(F)F)c(Nc3nc(Nc4cnc5ccccc5c4P(C)(C)=O)c4cc[nH]c4n3)cc2-c2cnn(C)c2)CC1 [Example 14, dimethyl (3-((2-((5-(1-methyl-1H-pyrazol-4-yl)-4-(4-methylpiperazin-1-yl)-2-(2,2,2-trifluoroethoxy)phenyl)amino)-7H-pyrrolo[2,3-d]pyrimidin-4-yl)amino)quinolin-4-yl)phosphine oxide] | > 0.1 | > 0.1 |
| C[C@@H]1CN(c2cc(OCC(F)(F)F)c(Nc3nc(Nc4ccc5nccnc5c4P(C)(C)=O)c4cc[nH]c4n3)cc2-c2cnn(C)c2)C[C@H](C)O1 [Example 10, (6-((2-((4-((2R, 6S)-2,6-dimethyl-morpholino)-5-(1-methyl-1H-pyrazol-4-yl)-2-(2,2,2-trifluoroethoxy)phenyl)amino)-7H-pyrrolo[2,3-d]pyrimidin-4-yl)amino)quinoxalin-5-yl)dimethyl phosphine oxide] | ≤ 0.05 | > 0.1 |
| Cn1cc(-c2cc(Nc3nc(Nc4ccc5nccnc5c4P(C)(C)=O)c4cc[nH]c4n3)ccc2N2CCC(N3CCOCC3)CC2)cn1 [Example 40, dimethyl (6-((2-((3-(1-methyl-1H-pyrazol-4-yl)-4-(4-morpholino-piperidin-1-yl)phenyl)amino)-7H-pyrrolo[2,3-d]pyrimidin-4-yl)amino)quinoxalin-5-yl) phosphinexide] | ≤ 0.05 | 0.05 to 0.1 |
| CN1CCN(c2c(-c3cnn(C)c3)cc(Nc3nc(Nc4ccc5nccnc5c4P(C)(C)=O)c4cc[nH]c4n3)c3c2OCO3)CC1 [Example 129, dimethyl (6-((2-((6-(1-methyl-1H-pyrazol-4-yl)-7-(4-methylpiperazin-1-yl)benzo[d] [1,3]dioxol-4-yl)amino)-7H-pyrrolo[2,3-d]pyrimidin-4-yl)amino)quinoxalin-5-yl)phosphine oxide] | ≤ 0.05 | > 0.1 |
| COc1cc(N2CCC(N3CCN(C)CC3)CC2)c(C)cc1Nc1nc(Nc2cnc3ccccc3c2P(C)(C)=O)c2cc[nH]c2n1 [Example 90, (3-((2-((2-methoxy-5-methyl-4-(4-(4-methylpiperazin-1-yl)piperidin-1-yl)phenyl)amino)-7H-pyrrolo[2,3-d]pyrimidin-4-yl)amino)quinolin-4-yl)dimethyl-phosphine oxide] | > 0.1 | > 0.1 |

Other lines, results leading:

| GI50 [1] [µM] | GI50 (BaF3-EGFR (WT) cells) [µM] | SMILES |
| --- | --- | --- |
| ≤ 0.05 | > 0.1 | COc1cc(N2CCN(C(C)(C)CF)CC2)c(-c2cnn(C)c2)cc1Nc1nc(Nc2ccc3nccnc3c2P(C)(C)=O)c2cc[nH]c2n1 [Example 109, (6-((2-((4-(4-(1-fluoro-2-methylpropan-2-yl)piperazin-1-yl)-2-methoxy-5-(1-methyl-1H-pyrazol-4-yl)phenyl)amino)-7H-pyrrolo[2,3-d]pyrimidin-4-yl)amino)quinoxalin-5-yl)dimethyl-phosphine oxide] |
| ≤ 0.05 | > 0.1 | COc1cc(N2CCN(C3CC3)CC2)c(-c2cnn(C)c2)cc1Nc1nc(Nc2ccc3nccnc3c2P(C)(C)=O)c2cc[nH]c2n1 [Example 42, (6-((2-((4-(4-cyclopropyl-piperazin-1-yl)-2-methoxy-5-(1-methyl-1H-pyrazol-4-yl)phenyl)amino)-7H-pyrrolo[2,3-d]pyrimidin-4-yl)amino)quinoxalin-5-yl)dimethyl-phosphine oxide] |
| > 0.1 | > 0.1 | COc1cc(N2CCN(C)CC2)c(-c2cnn(C)c2)cc1Nc1nc(Nc2ccc3nccnc3c2P(C)(C)=O)c2c(C#N)c[nH]c2n1 [Example 52] |
| 0.05 to 0.1 | > 0.1 | COc1cc(N2CCN(C)CC2)c(-c2cnn(C)c2)cc1Nc1nc(Nc2ccc3nccnc3c2P(C)(C)=O)c2c(Cl)c[nH]c2n1 [Example 51, (6-((5-chloro-2-((2-methoxy-5-(1-methyl-1H-pyrazol-4-yl)-4-(4-methylpiperazin-1-yl)phenyl)amino)-7H-pyrrolo[2,3-d]pyrimidin-4-yl)amino)quinoxalin-5-yl)dimethyl-phosphine oxide] |
| > 0.1 | > 0.1 | COc1cc(N2CCC(N3CCN(C)CC3)CC2)c(F)cc1Nc1nc(Nc2ccc3nccnc3c2P(C)(C)=O)c2cc[nH]c2n1 [Example 66, (6-((2-((5-fluoro-2-methoxy-4-(4-(4-methylpiperazin-1-yl)piperidin-1-yl)phenyl)amino)-7H-pyrrolo[2,3-d]pyrimidin-4-yl)amino)quinoxalin-5-yl)dimethyl-phosphine oxide] |
| > 0.1 | > 0.1 | COc1cc(N2CCN(C)CC2)c(-c2cnn(C(C)C)c2)cc1Nc1nc(Nc2ccc3nccnc3c2P(C)(C)=O)c2cc[nH]c2n1 [Example 49, (6-((2-((5-(1-isopropyl-1H-pyrazol-4-yl)-2-methoxy-4-(4-methyl-piperazin-1-yl)phenyl)amino)-7H-pyrrolo[2,3-d]pyrimidin-4-yl)amino)quinoxalin-5-yl)dimethyl-phosphine oxide] |
| > 0.1 | > 0.1 | COc1cc(N2CCC(N3CCN(C)CC3)CC2)c(C(C)C)cc1Nc1nc(Nc2ccc3nccnc3c2P(C)(C)=O)c2cc[nH]c2n1 [Example 67, (6-((2-((5-isopropyl-2-methoxy-4-(4-(4-methylpiperazin-1-yl)piperidin-1-yl)phenyl)amino)-7H-pyrrolo[2,3-d]pyrimidin-4-yl)amino)quinoxalin-5-yl)dimethyl-phosphine oxide] |
